Measured values from patent US20200102295A1, “NITROCATECHOL DERIVATIVES AS COMT INHIBITORS” (BIAL - PORTELA & CA, S.A., priority 2005, published 2020).

Key:
mouse liver COMT = biological target: T1, mouse liver COMT (Mus musculus, UniProt O88587); assay: Mouse liver COMT activity after oral administration of test compounds; type: in vivo; conditions: 3 mg/kg oral, 3 h after administration
T1 construct: Aliquots of 0.5 ml of liver homogenates were preincubated; from tissue; host or cells: mouse liver homogenate (NMRI mice, dosed orally; ex vivo activity)
T1 sequence (O88587 1-265): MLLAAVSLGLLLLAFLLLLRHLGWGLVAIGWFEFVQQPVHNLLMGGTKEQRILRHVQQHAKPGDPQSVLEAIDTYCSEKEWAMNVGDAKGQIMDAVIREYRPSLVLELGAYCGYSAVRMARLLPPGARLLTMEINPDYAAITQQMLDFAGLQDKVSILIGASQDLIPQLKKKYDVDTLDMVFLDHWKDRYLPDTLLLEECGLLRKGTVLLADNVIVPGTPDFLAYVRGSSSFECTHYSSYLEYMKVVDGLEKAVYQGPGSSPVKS

[1] = tested on: Neuro 2A mouse neuroblastoma cells; assay: Cell toxicity: Neuro 2A cell viability (calcein-AM); type: cell-based; conditions: Neuro 2A cells, 30 μM, 24 h exposure
rat liver COMT = biological target: T2, rat liver COMT (Rattus norvegicus, UniProt P22734); assay: Rat liver COMT activity after oral administration of test compounds; type: in vivo; conditions: 3 mg/kg oral
T2 construct: the organs were immediately removed and homogenised in 5 mM phosphate buffer of pH 7.8; from tissue; host or cells: rat liver homogenate (Wistar rats, dosed orally; ex vivo activity)
T2 sequence (P22734 1-264): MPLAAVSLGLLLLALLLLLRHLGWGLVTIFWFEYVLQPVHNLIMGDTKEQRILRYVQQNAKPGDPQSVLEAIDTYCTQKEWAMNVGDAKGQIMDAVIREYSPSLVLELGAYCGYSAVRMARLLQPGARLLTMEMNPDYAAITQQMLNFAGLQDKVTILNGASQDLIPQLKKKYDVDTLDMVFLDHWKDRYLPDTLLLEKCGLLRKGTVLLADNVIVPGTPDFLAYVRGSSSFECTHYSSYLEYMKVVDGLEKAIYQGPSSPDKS

[2] = tested on: plasma levels of L-DOPA and 3-O-methyl-L-DOPA (3-OMD); assay: Levels of L-DOPA and 3-O-methyl-L-DOPA in plasma of rats treated with L-DOPA plus benserazide; type: in vivo, rat; conditions: 3 mg/kg oral, 2 h after administration

Structure (SMILES): Cc1c(Cl)c(C)[n+]([O-])c(Br)c1-c1noc(-c2cc(O)c(O)c([N+](=O)[O-])c2)n1 [Compound 47, 5-[3-(2-Bromo-5-chloro-4,6-dimethyl-1-oxy-pyridin-3-yl)-[1,2,4]oxadiazol-5-yl]-3-nitrobenzene-1,2-diol]
- COMT activity (% of control) (mouse liver COMT): 25.2 % of control
- % of viable cells [1]: 81.2%
- Rat Liver COMT activity (% control) (rat liver COMT; 1 h after administration): 10.6 % control
- Rat Liver COMT activity (% control) (rat liver COMT; 3 h after administration): 4.0 % control
- Rat Liver COMT activity (% control) (rat liver COMT; 6 h after administration): 3.8 % control
- Rat Liver COMT activity (% control) (rat liver COMT; 9 h after administration): 8.2 % control
- L-DOPA % increase (plasma level, % control) ([2]; L-DOPA plus benserazide 1 h before plasma collection): 102.9%
- 3-OMD % reduction (plasma level, % control) ([2]; L-DOPA plus benserazide 1 h before plasma collection, given with minus sign): −58.5%
- L-Dopa/3-OMD ([2]; plasma ratio): 4.9
